Laboratory results reported in DBAASP.
≈ marks a conversion by molar mass, not a printed value.

Experiments:
Test in all cases: ≥ marks a high value that may be exact or a test limit, other limits are often not marked, values filed in µg/mL are converted to µM
[1] = tested on: Salmonella typhimurium KCTC 1926
[2] = tested on: Bacillus subtilis CMCC 63501
[3] = tested on: Candida parapsilosis
[4] = tested on: Staphylococcus epidermidis KCTC 1917
[5] = tested on: Salmonella enterica subsp. enterica serovar Typhimurium ATCC 14028
[6] = tested on: Pseudomonas aeruginosa ATCC 27853
[7] = tested on: Bacillus subtilis KCTC 3068
[8] = tested on: Staphylococcus aureus KCTC 1621
[9] = tested on: Salmonella typhimurium ATCC 7731
[10] = tested on: Escherichia coli K-12
[11] = tested on: Escherichia coli ATCC 25922
[12] = tested on: Escherichia coli KCTC 1682
[13] = tested on: Pseudomonas aeruginosa PAO1
[14] = tested on: Pseudomonas aeruginosa KCTC 1637
[15] = tested on: Escherichia coli DH5alpha
[16] = tested on: Staphylococcus aureus ATCC 29213
[17] = tested on: Escherichia coli UB1005
[18] = tested on: Staphylococcus epidermidis ATCC 12228
[19] = tested on: Enterococcus faecalis ATCC 29212
[20] = tested on: Staphylococcus aureus ATCC 9144
[21] = tested on: Escherichia coli ATCC 10536
[22] = tested on: Bacillus subtilis ATCC 6633
[23] = tested on: Staphylococcus aureus ATCC 25923
[24] = tested on: Pseudomonas aeruginosa ATCC BAA-427
[25] = tested on: Staphylococcus aureus C623
[26] = tested on: Candida albicans C627
[27] = tested on: Pseudomonas aeruginosa LES400
[28] = tested on: Pseudomonas aeruginosa H103
[29] = tested on: Pseudomonas aeruginosa 213
[30] = tested on: Enterococcus faecium mic80
[31] = tested on: Escherichia coli ESBL 63103

Row | MIC [11] | MIC [15] | MIC [21] | MIC [22] | MIC [23] | MIC [25] | MIC [26] | MIC [27] | MIC [28] | MIC [29] | MIC [30] | MIC [31] | SMILES | further results
1 | 16 µM (≈ 27.5 µg/mL) | ≥ 116 µM |  |  |  |  |  |  |  |  |  |  | CC[C@H](C)[C@H](NC(=O)[C@H](CCCN=C(N)N)NC(=O)[C@H](CCC(N)=O)NC(=O)[C@@H](NC(=O)[C@@H](NC(=O)[C@H](CCCN=C(N)N)NC(=O)[C@H](CCCCN)NC(=O)[C@@H](N)Cc1ccccc1)[C@@H](C)CC)C(C)C)C(=O)N[C@@H](CCCCN)C(=O)N[C@@H](CC(=O)O)C(=O)N[C@@H](Cc1ccccc1)C(=O)N[C@@H](CC(C)C)C(=O)N[C@@H](CCCN=C(N)N)C(N)=O [FKRIVQRIKDFLR] | MIC [1]: 16 µM (≈ 27.5 µg/mL); MIC [2]: 16 µM (≈ 27.5 µg/mL); MIC [3]: ≥ 116 µM; MIC [4]: 16 µM (≈ 27.5 µg/mL); MIC [5]: 32 µM (≈ 55 µg/mL); MIC [6]: 8 µM (≈ 13.7 µg/mL); MIC [7]: 4 µM (≈ 6.87 µg/mL); MIC [8]: 16 µM (≈ 27.5 µg/mL); MIC [9]: 16 µM (≈ 27.5 µg/mL); MIC [10]: ≥ 40 µM; MIC [12]: 16 µM (≈ 27.5 µg/mL); MIC [13]: 16 µM (≈ 27.5 µg/mL); MIC [14]: ≥ 32 µM; MIC [16]: 16 µM (≈ 27.5 µg/mL); MIC [17]: 16 µM (≈ 27.5 µg/mL); MIC [18]: 8 µM (≈ 13.7 µg/mL); MIC [19]: 32 µM (≈ 55 µg/mL)
2 |  | 4.3 µM (≈ 12.1 µg/mL) | 3.2 µM (≈ 8.97 µg/mL) | 2.4 µM (≈ 6.73 µg/mL) |  |  |  |  |  |  |  |  | CC[C@H](C)[C@H](NC(=O)CN)C(=O)NCC(=O)N[C@@H](C)C(=O)N[C@H](C(=O)N[C@@H](CC(C)C)C(=O)N[C@@H](CCCCN)C(=O)N[C@H](C(=O)N[C@@H](C)C(=O)N[C@H](C(=O)N[C@H](C(=O)NCC(=O)N[C@@H](CC(C)C)C(=O)N1CCC[C@H]1C(=O)N[C@@H](C)C(=O)N[C@@H](CC(C)C)C(=O)N[C@H](C(=O)N[C@@H](CO)C(=O)N[C@@H](Cc1c[nH]c2ccccc12)C(=O)N[C@H](C(=O)N[C@@H](CCCCN)C(=O)N[C@@H](CCCN=C(N)N)C(=O)N[C@@H](CCCCN)C(=O)N[C@@H](CCCN=C(N)N)C(=O)N[C@@H](CCC(N)=O)C(=O)N[C@@H](CCC(N)=O)C(N)=O)[C@@H](C)CC)[C@@H](C)CC)[C@@H](C)O)[C@@H](C)O)C(C)C)C(C)C [GIGAVLKVATTGLPALISWIKRKRQQ] | MIC [20]: 3.6 µM (≈ 10.1 µg/mL)
3 | 2 µM (≈ 3.03 µg/mL) |  | 1 µM (≈ 1.52 µg/mL) | 1 µM (≈ 1.52 µg/mL) | 1 µM (≈ 1.52 µg/mL) |  |  |  |  |  |  |  | CC[C@H](C)[C@H](N)C(=O)N[C@@H](CC(C)C)C(=O)NCC(=O)N[C@@H](CCCCN)C(=O)N[C@H](C(=O)N[C@@H](Cc1c[nH]c2ccccc12)C(=O)N[C@@H](CCCCN)C(=O)NCC(=O)N[C@@H](CCCCN)C(=O)N[C@@H](CCCCN)C(=O)N[C@@H](CO)C(=O)N[C@@H](CC(C)C)C(=O)N[C@@H](Cc1ccccc1)C(N)=O)[C@@H](C)CC [ILGKIWKGKKSLF] | MIC [24]: 2 µM (≈ 3.03 µg/mL)
4 |  |  |  |  | 5.18 µM (≈ 8 µg/mL) | 5.18 µM (≈ 8 µg/mL) | 5.18 µM (≈ 8 µg/mL) | ≥ 41.4 µM | 20.7 µM (≈ 32 µg/mL) | ≥ 82.8 µM | 20.7 µM (≈ 32 µg/mL) | ≥ 82.8 µM | NCCCC[C@H](N)C(=O)N[C@@H](Cc1c[nH]c2ccccc12)C(=O)N[C@@H](Cc1c[nH]c2ccccc12)C(=O)N[C@@H](CCCN=C(N)N)C(=O)N[C@@H](Cc1c[nH]c2ccccc12)C(=O)N[C@@H](CCCN=C(N)N)C(=O)N[C@@H](CCCN=C(N)N)C(=O)N[C@@H](Cc1c[nH]c2ccccc12)C(=O)N[C@@H](Cc1c[nH]c2ccccc12)C(=O)O [KWWRWRRWW] | 
5 |  |  |  |  | 91.4 µM (≈ 128 µg/mL) | ≥ 45.7 µM | 11.4 µM (≈ 16 µg/mL) | ≥ 91.4 µM | ≥ 91.4 µM | ≥ 91.4 µM | ≥ 45.7 µM | ≥ 45.7 µM | CC[C@H](C)[C@H](NC(=O)[C@H](Cc1c[nH]c2ccccc12)NC(=O)[C@H](Cc1c[nH]c2ccccc12)NC(=O)[C@H](CCCN=C(N)N)NC(=O)[C@H](CCCCN)NC(=O)[C@H](Cc1c[nH]c2ccccc12)NC(=O)[C@H](CC(C)C)NC(=O)[C@@H](N)CCCN=C(N)N)C(=O)N[C@@H](CCCN=C(N)N)C(=O)O [RLWKRWWIR] | 
